Measured values as given in patent US11896573B2, “Pharmaceutical compositions and pharmacokinetics of a gamma-hydroxybutyric acid derivative” (priority 2020, dated 2024).

Experiment: Single ascending dose study, plasma pharmacokinetics of Compound (1) and GHB
Format: in vivo, human
Details: fasted
Procedure: The plasma concentrations of Compound (1) and GHB in plasma in healthy human subjects were measured using liquid chromatography tandem mass-spectroscopy and evaluated using PHOENIX™ WINNONLIN® version 8.1 (Pharsight Corporation, USA) and MICROSOFT® EXCEL® (Microsoft Corporation, USA).
All randomized subjects who received Compound (1), with available pharmacokinetic (PK) data and without relevant deviations interfering with the PK evaluations, were included. Subjects who received only placebo were excluded from the PK population. In addition, the PK population was used for the summaries and analyses of all PK data.
A randomized, double-blind, single-center, single ascending dose study was undertaken to evaluate the safety, tolerability, and pharmacokinetics of Compound (1) and GHB in healthy subjects.
Compound (1) was administered to randomized healthy subjects at doses from 0.1 g to 7.25 g as an aqueous solution of Compound (1) in water. The subjects fasted for at least 10 hours overnight with clear liquids allowed prior to dosing and the subjects were fasted for 4 hours after dosing.
Plasma samples were obtained at various times following oral administration and the plasma concentrations of Compound (1) and GHB were measured.

[1] = Cohort 1 (0.10 g) single oral dose
[2] = Cohort 2 (0.50 g) single oral dose
[3] = Cohort 3 (1.50 g) single oral dose
[4] = Cohort 4 (3.00 g) single oral dose
[5] = Cohort 5 (4.50 g) single oral dose
[6] = Cohort 6 (6.00 g) single oral dose

Compound: CC(C)[C@H](N)C(=O)OCCCC(=O)O [Compound (1), 4-((L-valyl)oxy)butanoic acid]
- Compound (1) CL/F, Max [1]: 554 L/h
- Compound (1) CL/F, Mean [1]: 420 L/h
- Compound (1) CL/F, Median [1]: 408 L/h
- Compound (1) CL/F, Min [1]: 316 L/h
- Compound (1) plasma AUC0-inf, Max [1]: 316 ng·h/mL
- Compound (1) plasma AUC0-inf, Min [1]: 180 ng·h/mL
- Compound (1) plasma AUC0-tlast, Max [1]: 315 ng·h/mL
- Compound (1) plasma AUC0-tlast, Min [1]: 180 ng·h/mL
- Compound (1) plasma Cmax, Max [1]: 669 ng/mL
- Compound (1) plasma Cmax, Min [1]: 265 ng/mL
- Compound (1) plasma t1/2, Max [1]: 0.92 h
- Compound (1) plasma t1/2, Min [1]: 0.48 h
- Compound (1) CL/F, Max [2]: 500 L/h
- Compound (1) CL/F, Mean [2]: 400 L/h
- Compound (1) CL/F, Median [2]: 396 L/h
- Compound (1) CL/F, Min [2]: 309 L/h
- Compound (1) plasma AUC0-inf, Max [2]: 1620 ng·h/mL
- Compound (1) plasma AUC0-inf, Min [2]: 1000 ng·h/mL
- Compound (1) plasma AUC0-tlast, Max [2]: 1610 ng·h/mL
- Compound (1) plasma AUC0-tlast, Min [2]: 998 ng·h/mL
- Compound (1) plasma Cmax, Max [2]: 2470 ng/mL
- Compound (1) plasma Cmax, Min [2]: 1160 ng/mL
- Compound (1) plasma Tmax, Max [2]: 1.50 h
- Compound (1) plasma t1/2, Max [2]: 1.33 h
- Compound (1) plasma t1/2, Min [2]: 0.71 h
- Compound (1) CL/F, Max [3]: 959 L/h
- Compound (1) CL/F, Mean [3]: 673 L/h
- Compound (1) CL/F, Median [3]: 553 L/h
- Compound (1) CL/F, Min [3]: 468 L/h
- Compound (1) plasma AUC0-inf, Max [3]: 3210 ng·h/mL
- Compound (1) plasma AUC0-inf, Min [3]: 1500 ng·h/mL
- Compound (1) plasma AUC0-tlast, Max [3]: 4040 ng·h/mL
- Compound (1) plasma AUC0-tlast, Min [3]: 1500 ng·h/mL
- Compound (1) plasma Cmax, Max [3]: 5530 ng/mL
- Compound (1) plasma Cmax, Min [3]: 2100 ng/mL
- Compound (1) plasma Tmax, Max [3]: 1.50 h
- Compound (1) plasma t1/2, Max [3]: 1.11 h
- Compound (1) plasma t1/2, Min [3]: 0.97 h
- Compound (1) CL/F, Max [4]: 545 L/h
- Compound (1) CL/F, Mean [4]: 413 L/h
- Compound (1) CL/F, Median [4]: 408 L/h
- Compound (1) CL/F, Min [4]: 318 L/h
- Compound (1) plasma AUC0-inf, Max [4]: 9430 ng·h/mL
- Compound (1) plasma AUC0-inf, Min [4]: 5500 ng·h/mL
- Compound (1) plasma AUC0-tlast, Max [4]: 9430 ng·h/mL
- Compound (1) plasma AUC0-tlast, Min [4]: 5500 ng·h/mL
- Compound (1) plasma Cmax, Max [4]: 15200 ng/mL
- Compound (1) plasma Cmax, Min [4]: 7440 ng/mL
- Compound (1) plasma t1/2, Max [4]: 1.54 h
- Compound (1) plasma t1/2, Min [4]: 0.78 h
- Compound (1) CL/F, Max [5]: 586 L/h
- Compound (1) CL/F, Mean [5]: 416 L/h
- Compound (1) CL/F, Median [5]: 389 L/h
- Compound (1) CL/F, Min [5]: 353 L/h
- Compound (1) plasma AUC0-inf, Max [5]: 12700 ng·h/mL
- Compound (1) plasma AUC0-inf, Min [5]: 7670 ng·h/mL
- Compound (1) plasma AUC0-tlast, Max [5]: 12700 ng·h/mL
- Compound (1) plasma AUC0-tlast, Min [5]: 7660 ng·h/mL
- Compound (1) plasma Cmax, Max [5]: 16700 ng/mL
- Compound (1) plasma Cmax, Min [5]: 6790 ng/mL
- Compound (1) plasma t1/2, Max [5]: 1.50 h
- Compound (1) plasma t1/2, Min [5]: 0.83 h
- Compound (1) CL/F, Max [6]: 423 L/h
- Compound (1) CL/F, Mean [6]: 340 L/h
- Compound (1) CL/F, Median [6]: 334 L/h
- Compound (1) CL/F, Min [6]: 232 L/h
- Compound (1) plasma AUC0-inf, Max [6]: 25800 ng·h/mL
- Compound (1) plasma AUC0-inf, Min [6]: 14200 ng·h/mL
- Compound (1) plasma AUC0-tlast, Max [6]: 25800 ng·h/mL
- Compound (1) plasma AUC0-tlast, Min [6]: 14200 ng·h/mL
- Compound (1) plasma Cmax, Max [6]: 22900 ng/mL
- Compound (1) plasma Cmax, Min [6]: 13200 ng/mL
- Compound (1) plasma t1/2, Max [6]: 1.64 h
- Compound (1) plasma t1/2, Min [6]: 0.79 h
